In patent publication US7087634B2, “Cyclic AMP-specific phosphodiesterase inhibitors” (ICOS Corporation, priority 1999, dated 2006):

How the values were obtained:
PDE7 = biological target: T1, PDE7 (Homo sapiens, UniProt Q13946); assay: Inhibition of PDE7; format: biochemical
T1 construct: made in house; host or cells: Saccharomyces cerevisiae BJ2-54
Description: (§1) Recombinant production of human PDE1B, PDE2, PDE4A, PDE4B, PDE4C, PDE4D, PDE5, and PDE7 was carried out similarly to that described in Example 7 of U.S. Pat. No. 5,702,936, incorporated herein by reference, except that the yeast transformation vector employed, which is derived from the basic ADH2 plasmid described in Price et al., Methods in Enzymology, 185, pp. 308–318 (1990), incorporated yeast ADH2 promoter and terminator sequences and the Saccharomyces cerevisiae host was the protease-deficient strain BJ2–54 deposited on Aug. 31, 1998 with the American Type Culture Collection, Manassas, Va., under accession number ATCC 74465. Transformed host cells were grown in 2×SC-leu medium, pH 6.2, with trace metals, and vitamins. After 24 hours, YEP medium-containing glycerol was added to a final concentration of 2×YET/3% glycerol. […]
(§2) Phosphodiesterase activity of the preparations was determined as follows. […] The [32P]5′-AMP or [32P]5′-GMP then was quantitatively converted to free [32P]phosphate and unlabeled adenosine or guanosine by the action of snake venom 5′-nucleotidase. […] PDE enzyme was present in quantities that yield <30% total hydrolysis of substrate (linear assay conditions). […] After centrifugation (750×g for 3 minutes) to sediment the charcoal, a sample of the supernatant was taken for radioactivity determination in a scintillation counter and the PDE activity was calculated. […]

serum TNFα = assay: Combined mouse endotoxin-stimulated TNFα release assay (serum TNFα); format: in vivo; conditions: female Balb/c mice, i.p., LPS model
Description: The purpose of this study was to determine the efficacy of PDE4 inhibitors in vivo in an LPS mouse model together with a determination with respect to central nervous system (CNS) side-effects manifested by a decrease in spontaneous mobility.
The test animals were female Balb/c mice, having an average weight of about 20 g. The PDE4 inhibitors, formulated in 30% Cremophor® EL, were administered via intraperitoneal (i.p.) injections at doses of 0.1, 1.0, 10.0, and 100 mg/kg. Individual dose volumes (about 150 μL) were adjusted based on the body weights measured. One hour later, 5 mg/kg LPS in a final volume of 200 μL was injected via the tail vein to each animal. Ninety minutes following the LPS treatment, the animals were bled and serum samples were collected before being stored at −70° C. until assayed.
For efficacy determination, the serum samples were diluted two-fold and TNFα levels were determined using the CYTOSCREEN® Immunoassay Kit (Biosource International). The data were averaged between triplicate sample subjects for each of the tested compounds.

PDE2 = biological target: T2, PDE2 (Homo sapiens, UniProt O00408); assay: Inhibition of PDE2; format: biochemical
T2 construct: made in house; host or cells: Saccharomyces cerevisiae strain YI34
Description: as §1, §2

PDE1C = biological target: T3, PDE1C (Homo sapiens, UniProt Q14123); assay: Inhibition of PDE1C; format: biochemical
T3 construct: Plasmid Hcam3aBB contained the complete open reading frame of PDE1C3; made in house; host or cells: Sf9 (baculovirus)

PDE1B = biological target: T4, PDE1B (Homo sapiens, UniProt Q01064); assay: Inhibition of PDE1B; format: biochemical
T4 construct: made in house; host or cells: Saccharomyces cerevisiae BJ2-54

T2 sequence (O00408 whole entry): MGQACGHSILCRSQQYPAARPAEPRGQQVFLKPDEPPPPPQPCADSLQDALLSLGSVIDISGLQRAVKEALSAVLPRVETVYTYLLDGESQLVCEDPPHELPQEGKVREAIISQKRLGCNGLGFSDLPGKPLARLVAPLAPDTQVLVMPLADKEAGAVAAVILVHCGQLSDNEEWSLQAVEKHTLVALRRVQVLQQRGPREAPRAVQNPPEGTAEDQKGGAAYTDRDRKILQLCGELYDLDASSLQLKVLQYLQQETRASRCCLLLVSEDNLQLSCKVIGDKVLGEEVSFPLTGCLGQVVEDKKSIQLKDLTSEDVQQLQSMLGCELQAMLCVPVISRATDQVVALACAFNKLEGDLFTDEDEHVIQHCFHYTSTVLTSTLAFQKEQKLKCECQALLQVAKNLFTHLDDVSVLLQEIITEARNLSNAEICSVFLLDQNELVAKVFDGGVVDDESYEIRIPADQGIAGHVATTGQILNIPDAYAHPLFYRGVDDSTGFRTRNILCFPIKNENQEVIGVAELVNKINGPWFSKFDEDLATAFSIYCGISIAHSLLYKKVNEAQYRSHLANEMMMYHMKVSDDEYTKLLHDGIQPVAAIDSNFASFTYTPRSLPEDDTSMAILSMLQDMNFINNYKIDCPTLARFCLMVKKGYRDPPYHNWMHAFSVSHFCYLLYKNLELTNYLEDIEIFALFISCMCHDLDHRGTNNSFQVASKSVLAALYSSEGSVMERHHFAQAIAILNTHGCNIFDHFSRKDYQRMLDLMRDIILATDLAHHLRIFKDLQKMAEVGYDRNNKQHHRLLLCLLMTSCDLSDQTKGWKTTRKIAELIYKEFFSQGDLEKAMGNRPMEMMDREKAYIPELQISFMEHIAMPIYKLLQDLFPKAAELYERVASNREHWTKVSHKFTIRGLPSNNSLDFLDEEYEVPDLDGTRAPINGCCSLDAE
T1 sequence (Q13946 whole entry): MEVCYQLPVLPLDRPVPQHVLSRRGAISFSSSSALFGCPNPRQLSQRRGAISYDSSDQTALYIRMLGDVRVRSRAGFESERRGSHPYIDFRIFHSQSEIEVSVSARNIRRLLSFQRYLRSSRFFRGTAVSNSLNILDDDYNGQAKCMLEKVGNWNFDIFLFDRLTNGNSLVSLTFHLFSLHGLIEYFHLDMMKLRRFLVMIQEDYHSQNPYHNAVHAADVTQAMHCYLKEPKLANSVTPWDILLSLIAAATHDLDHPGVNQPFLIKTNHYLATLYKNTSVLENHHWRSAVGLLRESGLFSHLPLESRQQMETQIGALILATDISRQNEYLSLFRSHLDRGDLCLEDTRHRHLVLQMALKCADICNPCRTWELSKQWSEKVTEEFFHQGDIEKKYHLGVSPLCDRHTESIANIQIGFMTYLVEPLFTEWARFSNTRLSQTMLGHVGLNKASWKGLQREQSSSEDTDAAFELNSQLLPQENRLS

With `CCOC(=O)c1c(C)nn(-c2cccc([N+](=O)[O-])c2)c1C` [Example 2, 3,5-dimethyl-1-(3-nitrophenyl)-1H-pyrazole-4-carboxylic acid ethyl ester] the IC50 (PDE7) was 39 µM, the “% TNFQ Inhibition” value (serum TNFα; 10 mg/kg) was 70% and the “% TNFQ Inhibition” value (serum TNFα; 100 mg/kg) was 100%. The IC50 (PDE2) was 21.8 µM, the IC50 (PDE1C) was 30.2 µM and the IC50 (PDE1B) was 25.7 µM.
